Assay results from patent EP4763838A1, “COMPOUND AND USE THEREOF” (Ocean University of China, priority 2023, dated 2025).
Values joined by “and” are separate entries in the source; they are usually repeats but may differ in a detail not shown here. Equal values may be shown once. Where a name gives a salt, the structure may show the parent alone. Read-outs that look alike come from different tables or passages of the source.

Biological target: T1, E3 ubiquitin ligase CRBN (Homo sapiens, UniProt Q96SW2)
T1 construct: purchased PE (PerkinElmer) 64BDCRBNPEG
Test: Binding activity to E3 ubiquitin ligase CRBN (HTRF competitive binding with XL665-labeled thalidomide, Cereblon binding kit)
Conditions: competition with XL665-labeled thalidomide for GST-labelled CRBN protein, 3 h at room temperature
Experimental: The binding activity of the compound disclosed in the present patent to the E3 ubiquitin ligase CRBN was determined by competitive binding of the disclosed compound with XL665-labeled thalidomide to the CRBN protein, thereby preventing the occurrence of fluorescence resonance energy transfer (FRET). Accordingly, the binding affinity of the compound to the CRBN protein was determined.
CRBN binding activity test kit (CEREBLON BINDING KITS (PE, 64BDCRBNPEG)).
The assay was based on a homogeneous time-resolved fluorescence (HTRF) technology. When a donor and an acceptor were in close proximity, the donor transferred energy to the acceptor so that the acceptor was excited to emit an emission light 665 nm.
The donor used in the kit of the present disclosure was a europium-labeled GST antibody (GST Eu Cryptate Antibody), and the acceptor was thalidomide labeled with XL665 (Thalidomide-Red reagent). The donor bound to the CRBN protein comprising a GST label. The compound disclosed in the present patent competitively bound to the CRBN protein with thalidomide. The binding activity of the compound was determined according to the fluorescence value emitted by the acceptor at 665 nm. The stronger binding force of the compound indicated the weaker signal.
The donor and the acceptor were diluted 50-fold respectively by using a kit buffer (PROTAC binding buffer 1). The CRBN protein was diluted 45-fold. The 8 mM solution of the compound disclosed in the present patent was diluted 10-fold with 1X diluent from the kit, followed by 5-fold serial dilutions for a total of 7 consecutive dilutions.
5 µl of compound, 5 µl of diluted CRBN protein and 10 µl of donor-acceptor isovolumetric mixture were sequentially added to each well of a white 384-well plate (PE, Part number:6008280). The above system was incubated for 3 h at room temperature.
A ratio of acceptor to donor emission signals for each individual well was calculated. Ratio = signal value at 665 nm/signal value at 620 nm * 10^4 Coefficient of variation (CV) = standard deviation (SD)/average Ratio × 100 [formula]
The IC50 value was calculated based on the compound concentration, Ratio and the coefficient of variation by using GraphPad Prism. Table 10 Binding activity of compounds 1-18 to E3 ubiquitin ligase CRBN

IC50 (read-out: IC50) | Structure (SMILES) | IC50
 | CCc1cc(C2CCC(=O)NC2=O)nnc1N1CCNCC1 (stereo not shown) [Compound 22, 3-(5-ethyl-6-(piperazin-1-yl)pyridazin-3-yl)piperidine-2,6-dione hydrochloride salt] | > 50 µM
 | CC(C)c1cc(C2CCC(=O)NC2=O)nnc1N1CCNCC1 (stereo not shown) [Compound 23, 3-(5-isopropyl-6-(piperazin-1-yl)pyridazin-3-yl)piper idine-2,6-dione hydrochloride salt] | 100 µM
 | O=C1CCC(c2cc(C3CC3)c(N3CCNCC3)nn2)C(=O)N1 (stereo not shown) [Compound 24, 3-(5-cyclopropyl-6-(piperazin-1-yl)pyridazin-3-yl)pip eridine-2,6-dione hydrochloride salt] | > 50 µM
 | O=C1CCC(c2cc(F)c(N3CCNCC3)nn2)C(=O)N1 (stereo not shown) [Compound 25, 3-(5-fluoro-6-(piperazin-1-yl)pyridazin-3-yl)piperidine-2,6-dione hydrochloride salt] | 50 µM
 | N#Cc1cc(C2CCC(=O)NC2=O)nnc1N1CCNCC1 (stereo not shown) [Compound 26, 6-(2,6-dioxopiperidin-3-yl) -3-(piperazin-1-yl)pyridazine-4-carbonitrile hydrochloride salt] | 50 µM
 | O=C1CCC(c2cc(C(F)(F)F)c(N3CCNCC3)nn2)C(=O)N1 (stereo not shown) [Compound 27, 3-(6-(piperazin-1-yl)-5-(trifluoromethyl)pyridazin-3-yl)piperidine-2,6-dione hydrochloride salt] | 50 µM
 | COc1cc(C2CCC(=O)NC2=O)nnc1N1CCNCC1 (stereo not shown) [Compound 28, 3-(5-methoxy-6-(piperazin-1-yl)pyridazin-3-yl)piper idine-2,6-dione hydrochloride salt] | 50 µM
 | Nc1cc(C2CCC(=O)NC2=O)nnc1N1CCNCC1 (stereo not shown) [Compound 29, 3-(5-amino-6-(piperazin-1-yl)pyridazin-3-yl)piperidine-2,6-dione hydrochloride salt] | 50 µM
> 50 µM and 100 µM | CN(C)Cc1cc(C2CCC(=O)NC2=O)nnc1N1CCNCC1 (stereo not shown) [Compound 30, 3-(5-((dimethylamino)methyl)-6-(piperazin-1-yl)pyridazin-3-yl)piperidine-2,6-dione bis-hydrochloride salt] | 
 | Cc1c(C2CCC(=O)NC2=O)nnc(N2CCNCC2)c1C (stereo not shown) [Compound 33, 3-(4,5-dimethyl-6-(piperazin-1-yl)pyridazin-3-yl)pip eridine-2,6-dione hydrochloride salt] | 50 µM
 | O=C1CCC(F)(c2ccc(N3CCNCC3)nn2)C(=O)N1 (stereo not shown) [Compound 38, 3-fluoro-3-(6-(piperazin-1-yl)pyridazin-3-yl)piperidine-2,6-dione hydrochloride salt] | 50 µM
 | [2H]C1(c2ccc(N3CCNCC3)nn2)CCC(=O)NC1=O (stereo not shown) [Compound 39, 3-(6-(piperazin-1-yl)pyridazin-3-yl)piperidine-2,6-dione-3-dhydrochloride salt] | 50 µM
 | O=C1CCN(c2ccc(N3CCNCC3)nn2)C(=O)N1 [Compound 40, 1-(6-(piperazin-1-yl)pyridazin-3-yl)dihydropyrimidine-2,4(1H,3H)-dione hydrochloride salt] | 50 µM
 | COc1nnc(C2CCC(=O)NC2=O)cc1N1CCNCC1 (stereo not shown) [Compound 41, 3-(6-methoxy-5-(piperazin-1-yl)pyridazin-3-yl)piper idine-2,6-dione hydrochloride salt] | 50 µM
 | CN(C)c1nnc(C2CCC(=O)NC2=O)cc1N1CCNCC1 (stereo not shown) [Compound 42, 3-(6-(dimethylamino)-5-(piperazin-1-yl)pyridazin-3-yl)piperidine-2,6-dione hydrochloride salt] | 50 µM
 | CN1C(=O)CCC(c2ccc(N3CCNCC3)nn2)C1=O (stereo not shown) [Compound 43, 1-methyl-3-(6-(piperazin-1-yl)pyridazin-3-yl)piperidine-2,6-dione hydrochloride salt] | > 100 µM
